In brackets after ≈: the same amount, converted by molar mass.
Tests used:
[1] = test system: methicillin-resistant Staphylococcus aureus (MRSA); test: In vitro antibacterial activity, broth microdilution (MIC90); conditions: read-out: Antibacterial activity MIC90, MRSA
From the text: (§1) MIC90 measurement was made according to the broth microdilution method based on the CLSI document [Clinical and Laboratory Standards Institute Document.
(§2) The test compounds in DMSO solution were further diluted 20-fold with sterile distilled water.

[2] = test system: linezolid- and vancomycin-resistant Enterococcus faecalis (LVRE); test: as above; conditions: read-out: Antibacterial activity MIC90, LVRE
From the text: as §1, §2

MIC90 [1]	MIC [2]	SMILES
2 µg/mL (≈ 5.39 µM)	16 µg/mL (≈ 43.1 µM)	O=C(NC[C@H]1CN(c2ccc(N3C=NNCC3)c(F)c2)C(=O)O1)C(F)F [Compound 46]
0.5 µg/mL (≈ 1.22 µM)	4 µg/mL (≈ 9.77 µM)	CCOC(=S)NC[C@H]1CN(c2ccc(N3C=NN(C=O)CC3)c(F)c2)C(=O)O1 [Compound 54]
8 µg/mL (≈ 20.6 µM)	32 µg/mL (≈ 82.4 µM)	N#CCC(=O)NC[C@H]1CN(c2ccc(N3C=NN(C=O)CC3)c(F)c2)C(=O)O1 [Compound 42]
1 µg/mL (≈ 2.31 µM)	4 µg/mL (≈ 9.25 µM)	O=CN1CCN(c2ccc(N3C[C@H](CNC(=O)C(Cl)Cl)OC3=O)cc2F)C=N1 [Compound 51]
1 µg/mL (≈ 2.36 µM)	8 µg/mL (≈ 18.9 µM)	CCOC(=S)N1CCN(c2ccc(N3C[C@H](CNC(C)=O)OC3=O)cc2F)C=N1 [Compound 31]
2 µg/mL (≈ 4.8 µM)	16 µg/mL (≈ 38.4 µM)	O=CN1CCN(c2ccc(N3C[C@H](CNC(=O)c4ccno4)OC3=O)cc2F)C=N1 [Compound 52]
16 µg/mL (≈ 39.2 µM)	64 µg/mL (≈ 157 µM)	CC(=O)NC[C@H]1CN(c2ccc(N3C=NN(CC(=O)NO)CC3)c(F)c2)C(=O)O1 [Compound 26]
4 µg/mL (≈ 9.68 µM)	16 µg/mL (≈ 38.7 µM)	CC(=O)NC[C@H]1CN(c2ccc(N3C=NN(S(C)(=O)=O)CC3)c(F)c2)C(=O)O1 [Compound 18]
1 µg/mL (≈ 2.43 µM)	4 µg/mL (≈ 9.72 µM)	COC(=S)NC[C@H]1CN(c2ccc(N3C=NN(CCO)CC3)c(F)c2)C(=O)O1 [Compound 70]
0.5 µg/mL (≈ 1.27 µM)	4 µg/mL (≈ 10.1 µM)	CC(=O)NC[C@H]1CN(c2ccc(N3C=NN(C(N)=S)CC3)c(F)c2)C(=O)O1 [Compound 29]
0.5 µg/mL (≈ 1.07 µM)	2 µg/mL (≈ 4.28 µM)	COC(=S)NC[C@H]1CN(c2ccc(N3C=NN(C(=O)COC(C)=O)CC3)c(F)c2)C(=O)O1 [Compound 59]
1 µg/mL (≈ 2.75 µM)	16 µg/mL (≈ 44 µM)	COC(=S)NC[C@H]1CN(c2ccc(N3C=NN(C)CC3)cc2)C(=O)O1 [Compound 98]
0.5 µg/mL (≈ 1.09 µM)	8 µg/mL (≈ 17.4 µM)	CC(=O)OCC(=O)N1CCN(c2ccc(N3C[C@H](CNc4ccon4)OC3=O)cc2F)C=N1 [Compound 88]
16 µg/mL (≈ 38.6 µM)	64 µg/mL (≈ 154 µM)	CC(=O)NC[C@H]1CN(c2ccc(N3C=NN(S(N)(=O)=O)CC3)c(F)c2)C(=O)O1 [Compound 20]
0.5 µg/mL (≈ 1.13 µM)	2 µg/mL (≈ 4.53 µM)	COC(=S)NC[C@H]1CN(c2ccc(N3C=NN(C(=S)OC)CC3)c(F)c2)C(=O)O1 [Compound 72]
1 µg/mL (≈ 2.44 µM)	4 µg/mL (≈ 9.77 µM)	COC(=S)N1CCN(c2ccc(N3C[C@H](CNC(C)=O)OC3=O)cc2F)C=N1 [Compound 30]

SMILES	MIC90 [1]	MIC [2]
CCN1CCN(c2ccc(N3C[C@H](CNC(=S)OC)OC3=O)cc2F)C=N1 [Compound 61]	0.5 µg/mL (≈ 1.26 µM)	4 µg/mL (≈ 10.1 µM)
O=CN1CCN(c2ccc(N3C[C@H](CNC(=O)C(F)F)OC3=O)cc2F)C=N1 [Compound 45]	1 µg/mL (≈ 2.5 µM)	4 µg/mL (≈ 10 µM)
COC(=S)NC[C@H]1CN(c2ccc(N3C=NN(C4CCC4)CC3)c(F)c2)C(=O)O1 [Compound 68]	0.25 µg/mL (≈ 0.593 µM)	2 µg/mL (≈ 4.74 µM)
C=C(Cl)CN1CCN(c2ccc(N3C[C@H](CNC(C)=O)OC3=O)cc2F)C=N1 [Compound 40]	2 µg/mL (≈ 4.88 µM)	8 µg/mL (≈ 19.5 µM)
CCN1CCN(c2ccc(N3C[C@H](CNc4ccon4)OC3=O)cc2F)C=N1 [Compound 90]	2 µg/mL (≈ 5.15 µM)	8 µg/mL (≈ 20.6 µM)
N#CCN1CCN(c2ccc(N3C[C@H](CNC(=O)C(F)F)OC3=O)cc2F)C=N1 [Compound 50]	2 µg/mL (≈ 4.87 µM)	16 µg/mL (≈ 39 µM)
CC(=S)NC[C@H]1CN(c2ccc(N3C=NN(CC#N)CC3)c(F)c2)C(=O)O1 [Compound 75]	0.25 µg/mL (≈ 0.64 µM)	2 µg/mL (≈ 5.12 µM)
CC(=O)NC[C@H]1CN(c2ccc(N3C=NN(C)CC3)cc2)C(=O)O1 [Compound 96]	2 µg/mL (≈ 6.04 µM)	16 µg/mL (≈ 48.3 µM)
CC(=O)NC[C@H]1CN(c2ccc(N3C=NNCC3)c(F)c2)C(=O)O1 [Compound 2]	2 µg/mL (≈ 5.96 µM)	16 µg/mL (≈ 47.7 µM)
C=CCN1CCN(c2ccc(N3C[C@H](CNC(C)=O)OC3=O)cc2F)C=N1 [Compound 4]	1 µg/mL (≈ 2.66 µM)	8 µg/mL (≈ 21.3 µM)
CC(=O)NC[C@H]1CN(c2ccc(N3C=NN(C(=O)C(F)F)CC3)c(F)c2)C(=O)O1 [Compound 17]	1 µg/mL (≈ 2.42 µM)	8 µg/mL (≈ 19.4 µM)

From US8242113B2, “Oxazolidinone derivatives with cyclic amidoxime or cyclic amidrazone pharmaceutical compositions thereof” (Legochem Biosciences, Inc., priority 2008, dated 2012)
